Measured values: article PMC12325182, “Discovery of novel and potent celastrol derivatives as PRDX1 inhibitors for cancer therapy through structure-based virtual screening” (Frontiers in Pharmacology, 2025)

Assays:
[1] = target: T1, PRDX1 (Homo sapiens, UniProt Q06830); experiment: PRDX1 inhibition assay; type: biochemical; details: mean ± SD, n = 3; read-out: PRDX1 (IC50)
T1 sequence (Q06830 1-199): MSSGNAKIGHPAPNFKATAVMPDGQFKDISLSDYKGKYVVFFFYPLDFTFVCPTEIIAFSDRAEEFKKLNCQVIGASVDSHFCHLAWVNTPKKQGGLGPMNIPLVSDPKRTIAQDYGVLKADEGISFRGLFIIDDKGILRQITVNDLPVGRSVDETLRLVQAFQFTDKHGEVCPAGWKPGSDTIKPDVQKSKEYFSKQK
Experimental: The cells were purchased from the American Type Culture Collection (ATCC) (Manassas, VA, United States). Cells were cultured in RPMI-1640 medium supplemented with 10% FBS, 50 units/mL penicillin, and 50 μg/mL streptomycin, and maintained at 37°C in a 5% CO2 humidified culture environment. CPs 1-5 were purchased from WuXi AppTec. Human PRDX1 proteins were purchased from Abcam (Cambridge, MA, United States).
First, […] buffer (20 mM HEPES, 5 mM EDTA, 5 μM cofactor A, 2 μM cofactor B, and 300 μM NADPH) was added to a 96-well plate. The test compounds at the designated concentration (0.02–2 nM, with 1.5-fold dilution) were incubated with PRDX1 at 37°C for 25 min, and then the co-incubated mixture was added to each well to a final concentration of 200 nM PRDX1. Finally, 200 μM H2O2 was added to each well to initiate the enzyme reaction cycle. The oxidation of NADPH was determined by the absorption value at 340 nm. Read plate values for 90 s for one cycle and repeat for 20 cycles. The positive control (celastrol, concentrations 0.06–64 μM) was tested in parallel under identical experimental conditions. Three independent replicate experiments were performed.

[2] = target: T1, PRDX1; experiment: Kinetics studies of PRDX1 inhibition; type: biochemical; details: mean ± SD, n = 3
Experimental: The PRDX1 protein (0.5 nM) was incubated with varying concentrations of the CP1 (0, 0.6, 1.5, and 3.8 nM) at room temperature for 1 h. Subsequently, the Trx/TrxR/NADPH mixture was added and the enzymatic reaction was initiated by the addition of different concentrations of H2O2 (5–1,000 μM). The absorbance changes at 340 nm were monitored in real-time using a microplate reader. Kinetic parameters, including the Michaelis constant (Km), maximum reaction rate (Vmax), and α value, were determined by fitting the data to the Michaelis-Menten equation.

[3] = target: T1, PRDX1; experiment: MST assay; type: binding; details: MST; mean ± SD, n = 3; read-out: PRDX1 (Kd)
Experimental: The MST assays were carried out in a buffer composed of 50 mM Tris, 200 mM NaCl, and 0.1% (v/v) TWEEN20. PRDX1 was tagged with the MO-L011 protein labeling kit (RED-NHS second Generation). The diluted compounds were combined with the tagged PRDX1 protein and allowed to stand at room temperature for 5 minutes. Subsequently, the reaction mixture was loaded into capillaries, and measurements were taken using a Monolith NT.115 instrument.

[4] = tested on: BEAS-2B normal lung cells; experiment: MTT assay; type: cell-based; details: Homo sapiens, MTT, 72 h, normal lung cells, mean ± SD, n = 3, read-out: IC50 (μM) BEAS-2B
Experimental: (§1) Cells were seeded in 96-well plates at 5 ×10^4 cells/well and cultured overnight at 37°C under 5% CO2. After medium removal, cells were treated with serially diluted compounds (0.04–163.84 μM) or vehicle control (0.1% DMSO) and incubated for 72 h. Subsequently, 20 μL of MTT solution (5 mg/mL) was added to each well, and incubation was continued for 4 h. Add 150 μL of DMSO and shake for 10 min to fully dissolve the crystal. Finally, the absorbance was measured at 570 nm using a microplate reader. Cell viability was calculated as (ODcompound - ODblank)/(ODvehicle - ODblank) × 100%. The half inhibitory concentration (IC50) was calculated from the dose-response curve using Prism 8.0 software. Three independent replicate experiments were performed.

[5] = tested on: HEK293 (embryonic kidney cells); experiment: MTT assay; type: cell-based; details: Homo sapiens, HEK293; MTT, 72 h; normal cells; mean ± SD, n = 3; read-out: IC50 (μM) HEK293
Experimental: as §1

[6] = tested on: HaCaT (immortalised keratinocytes); experiment: MTT assay; type: cell-based; details: Homo sapiens, 72 h, normal cells, mean ± SD, n = 3
Experimental: as §1

[7] = tested on: LO2 (normal liver cells); experiment: MTT assay; type: cell-based; details: Homo sapiens; MTT, 72 h; normal cells; mean ± SD, n = 3; read-out: IC50 (μM) LO2
Experimental: as §1

[8] = tested on: MCF-7 (breast adenocarcinoma cells); experiment: MTT assay; type: cell-based; details: Homo sapiens, MCF7; MTT, 72 h; mean ± SD, n = 3; read-out: IC50 (μM) MCF-7
Experimental: as §1

[9] = target: T2, AXL (Homo sapiens, UniProt P30530); experiment: Kinase selectivity assay; type: biochemical; details: target AXL; read-out: CP1 IC50
T2 construct: ICE Biosciences (Beijing, China), ran the assays
T2 sequence (P30530 26-894): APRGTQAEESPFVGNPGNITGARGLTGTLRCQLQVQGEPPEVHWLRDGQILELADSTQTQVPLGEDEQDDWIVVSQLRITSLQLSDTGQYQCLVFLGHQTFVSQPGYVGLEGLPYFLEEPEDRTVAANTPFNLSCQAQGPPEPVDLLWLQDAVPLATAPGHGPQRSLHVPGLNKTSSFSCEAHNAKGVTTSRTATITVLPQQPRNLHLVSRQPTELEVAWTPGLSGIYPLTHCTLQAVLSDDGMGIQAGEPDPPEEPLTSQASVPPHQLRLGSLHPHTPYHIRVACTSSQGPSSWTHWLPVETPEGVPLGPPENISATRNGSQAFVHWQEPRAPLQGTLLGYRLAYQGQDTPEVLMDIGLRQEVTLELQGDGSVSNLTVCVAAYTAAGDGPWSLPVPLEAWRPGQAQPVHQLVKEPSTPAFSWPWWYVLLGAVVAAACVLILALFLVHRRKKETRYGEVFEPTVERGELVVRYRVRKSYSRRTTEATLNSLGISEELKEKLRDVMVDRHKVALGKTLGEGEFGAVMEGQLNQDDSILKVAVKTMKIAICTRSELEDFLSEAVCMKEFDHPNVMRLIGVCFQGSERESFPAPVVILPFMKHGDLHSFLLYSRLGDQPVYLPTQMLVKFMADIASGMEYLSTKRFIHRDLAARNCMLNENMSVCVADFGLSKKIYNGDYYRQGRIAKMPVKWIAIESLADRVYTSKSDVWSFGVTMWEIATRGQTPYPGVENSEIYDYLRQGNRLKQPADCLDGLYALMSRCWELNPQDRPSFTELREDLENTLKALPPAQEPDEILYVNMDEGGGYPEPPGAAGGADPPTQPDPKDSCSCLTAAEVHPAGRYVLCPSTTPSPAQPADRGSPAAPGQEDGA
Experimental: (§2) The selectivity of CP1 for PRDX1 was evaluated through kinase selectivity assays against other PRDX family members and a panel of kinases. The experiments were conducted by ICE Biosciences (Beijing, China).

[10] = target: T3, BTK (Homo sapiens, UniProt Q06187); experiment: Kinase selectivity assay; type: biochemical; details: target BTK; read-out: CP1 IC50
T3 construct: ICE Biosciences (Beijing, China), ran the assays
T3 sequence (Q06187 whole entry): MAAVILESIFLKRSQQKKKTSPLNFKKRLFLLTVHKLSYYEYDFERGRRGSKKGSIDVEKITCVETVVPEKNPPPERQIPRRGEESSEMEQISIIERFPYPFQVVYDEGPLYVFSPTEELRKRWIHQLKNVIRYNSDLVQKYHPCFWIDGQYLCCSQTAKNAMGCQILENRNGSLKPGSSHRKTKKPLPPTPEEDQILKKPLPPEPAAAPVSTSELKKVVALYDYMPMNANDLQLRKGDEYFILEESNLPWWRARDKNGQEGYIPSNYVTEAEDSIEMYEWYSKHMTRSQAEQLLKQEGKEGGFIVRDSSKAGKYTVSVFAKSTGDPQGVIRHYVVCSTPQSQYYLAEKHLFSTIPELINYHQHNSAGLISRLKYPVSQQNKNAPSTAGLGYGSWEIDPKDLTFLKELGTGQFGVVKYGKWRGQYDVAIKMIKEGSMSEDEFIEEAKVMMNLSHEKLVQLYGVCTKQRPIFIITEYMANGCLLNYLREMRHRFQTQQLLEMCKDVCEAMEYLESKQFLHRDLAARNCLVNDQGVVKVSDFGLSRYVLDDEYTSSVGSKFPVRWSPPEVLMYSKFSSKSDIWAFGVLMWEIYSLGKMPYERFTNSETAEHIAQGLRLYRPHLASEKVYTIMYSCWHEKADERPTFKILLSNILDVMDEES
Experimental: as §2

[11] = target: T4, CSF1R (Homo sapiens, UniProt P07333); experiment: Kinase selectivity assay; type: biochemical; details: target CSF1R; read-out: CP1 IC50
T4 construct: ICE Biosciences (Beijing, China), ran the assays
Experimental: as §2

[12] = target: T5, FGFR3 (Homo sapiens, UniProt P22607); experiment: Kinase selectivity assay; type: biochemical; details: target FGFR3; read-out: CP1 IC50
T5 construct: assay run by ICE Biosciences (Beijing, China)
Experimental: as §2

[13] = target: MST1R (Homo sapiens, UniProt Q04912); experiment: Kinase selectivity assay; type: biochemical; details: target MST1R; read-out: CP1 IC50
Experimental: as §2

[14] = target: NTRK2 (Homo sapiens, UniProt Q16620); experiment: Kinase selectivity assay; type: biochemical
NTRK2, sequence (Q16620 32-822): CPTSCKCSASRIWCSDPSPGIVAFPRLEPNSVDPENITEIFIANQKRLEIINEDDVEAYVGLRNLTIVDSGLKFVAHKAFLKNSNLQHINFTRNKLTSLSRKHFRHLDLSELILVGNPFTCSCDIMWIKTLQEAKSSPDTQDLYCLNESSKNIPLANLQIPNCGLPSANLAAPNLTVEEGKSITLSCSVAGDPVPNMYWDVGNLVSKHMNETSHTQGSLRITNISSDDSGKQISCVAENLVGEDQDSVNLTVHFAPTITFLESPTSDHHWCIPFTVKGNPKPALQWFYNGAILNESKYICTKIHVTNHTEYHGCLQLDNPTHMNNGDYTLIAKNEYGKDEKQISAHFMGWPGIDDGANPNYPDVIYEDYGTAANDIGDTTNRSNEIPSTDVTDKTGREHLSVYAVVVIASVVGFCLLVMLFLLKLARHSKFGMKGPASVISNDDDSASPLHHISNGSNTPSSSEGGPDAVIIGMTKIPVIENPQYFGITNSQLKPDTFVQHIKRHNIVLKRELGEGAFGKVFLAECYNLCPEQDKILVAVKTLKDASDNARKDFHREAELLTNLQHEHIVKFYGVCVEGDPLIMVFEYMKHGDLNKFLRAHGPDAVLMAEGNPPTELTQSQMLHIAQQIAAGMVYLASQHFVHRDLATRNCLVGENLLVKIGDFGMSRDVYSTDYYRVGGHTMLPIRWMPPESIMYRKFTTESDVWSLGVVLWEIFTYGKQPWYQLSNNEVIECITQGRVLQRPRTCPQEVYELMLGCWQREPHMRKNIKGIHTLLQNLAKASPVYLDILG
Experimental: as §2

[15] = target: T6, PDGFRB (Homo sapiens, UniProt P09619); experiment: Kinase selectivity assay; type: biochemical; details: target PDGFRB; read-out: CP1 IC50
T6 construct: assay run by ICE Biosciences (Beijing, China)
T6 sequence (P09619 33-1106): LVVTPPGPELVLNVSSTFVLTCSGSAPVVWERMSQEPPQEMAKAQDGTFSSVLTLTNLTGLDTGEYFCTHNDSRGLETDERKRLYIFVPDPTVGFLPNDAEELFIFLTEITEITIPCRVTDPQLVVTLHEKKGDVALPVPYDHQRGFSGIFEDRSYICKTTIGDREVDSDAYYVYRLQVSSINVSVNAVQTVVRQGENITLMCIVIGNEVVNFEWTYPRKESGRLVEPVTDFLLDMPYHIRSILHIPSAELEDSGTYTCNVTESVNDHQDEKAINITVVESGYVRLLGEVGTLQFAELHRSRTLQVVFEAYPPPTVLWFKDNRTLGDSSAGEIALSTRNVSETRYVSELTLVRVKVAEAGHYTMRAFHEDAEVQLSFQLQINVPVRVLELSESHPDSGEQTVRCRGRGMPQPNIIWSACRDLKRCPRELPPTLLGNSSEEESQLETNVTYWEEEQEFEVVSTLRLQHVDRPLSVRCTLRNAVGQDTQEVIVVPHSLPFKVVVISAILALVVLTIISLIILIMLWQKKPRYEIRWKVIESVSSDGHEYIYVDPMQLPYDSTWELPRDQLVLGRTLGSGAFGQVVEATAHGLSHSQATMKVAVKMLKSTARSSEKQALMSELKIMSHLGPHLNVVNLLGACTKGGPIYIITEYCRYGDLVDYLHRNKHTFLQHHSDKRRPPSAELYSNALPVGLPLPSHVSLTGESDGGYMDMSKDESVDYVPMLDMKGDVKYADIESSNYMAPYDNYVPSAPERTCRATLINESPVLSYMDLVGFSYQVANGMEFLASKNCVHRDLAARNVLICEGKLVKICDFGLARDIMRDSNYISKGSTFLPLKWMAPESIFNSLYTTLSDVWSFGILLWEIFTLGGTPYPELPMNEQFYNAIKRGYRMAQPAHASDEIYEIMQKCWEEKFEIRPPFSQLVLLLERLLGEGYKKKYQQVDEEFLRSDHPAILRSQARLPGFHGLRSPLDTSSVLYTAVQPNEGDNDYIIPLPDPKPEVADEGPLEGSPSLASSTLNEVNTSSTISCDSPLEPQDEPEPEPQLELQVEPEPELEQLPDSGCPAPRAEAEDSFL
Experimental: as §2

[16] = target: T7, TEK (Homo sapiens, UniProt Q02763); experiment: Kinase selectivity assay; type: biochemical; details: target TEK; read-out: CP1 IC50
T7 construct: assay run by ICE Biosciences (Beijing, China)
T7 sequence (Q02763 23-1124): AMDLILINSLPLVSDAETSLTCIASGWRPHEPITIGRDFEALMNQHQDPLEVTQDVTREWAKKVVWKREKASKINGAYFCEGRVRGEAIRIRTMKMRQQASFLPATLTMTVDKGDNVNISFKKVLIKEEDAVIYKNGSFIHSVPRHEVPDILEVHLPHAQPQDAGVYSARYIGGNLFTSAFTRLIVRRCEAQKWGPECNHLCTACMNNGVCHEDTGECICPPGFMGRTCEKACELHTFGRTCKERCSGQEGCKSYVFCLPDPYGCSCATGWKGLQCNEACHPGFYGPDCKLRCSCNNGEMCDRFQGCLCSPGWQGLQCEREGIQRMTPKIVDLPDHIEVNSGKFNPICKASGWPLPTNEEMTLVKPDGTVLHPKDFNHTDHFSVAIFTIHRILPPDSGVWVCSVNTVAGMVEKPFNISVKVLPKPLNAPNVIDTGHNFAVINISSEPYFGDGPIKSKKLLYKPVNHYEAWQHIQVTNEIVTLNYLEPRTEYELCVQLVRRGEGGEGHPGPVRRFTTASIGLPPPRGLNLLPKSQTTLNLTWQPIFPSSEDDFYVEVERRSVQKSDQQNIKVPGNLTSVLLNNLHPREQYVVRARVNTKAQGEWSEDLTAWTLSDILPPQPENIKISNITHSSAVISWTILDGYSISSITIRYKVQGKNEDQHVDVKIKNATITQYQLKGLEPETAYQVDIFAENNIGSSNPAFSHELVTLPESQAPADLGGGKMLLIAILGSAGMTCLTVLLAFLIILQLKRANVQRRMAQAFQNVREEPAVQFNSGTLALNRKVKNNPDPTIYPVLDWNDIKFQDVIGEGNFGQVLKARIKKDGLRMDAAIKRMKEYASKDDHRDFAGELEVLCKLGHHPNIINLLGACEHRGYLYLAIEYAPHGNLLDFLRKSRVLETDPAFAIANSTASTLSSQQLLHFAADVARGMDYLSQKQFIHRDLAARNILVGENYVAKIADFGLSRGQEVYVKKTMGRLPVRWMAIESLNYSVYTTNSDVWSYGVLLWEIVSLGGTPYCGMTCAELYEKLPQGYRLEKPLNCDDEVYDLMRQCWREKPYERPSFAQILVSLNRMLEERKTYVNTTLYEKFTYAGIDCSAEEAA
Experimental: as §2

With `CC1=C(CC(=O)/C=C/c2cccc(CO)c2)C(=O)C=C2C1=CC=C1[C@@]2(C)CC[C@@]2(C)C3C[C@](C)(C(=O)CCc4nc(C(O)C(O)O)c(C)nc4C)CC[C@]3(C)CC[C@]12C` (stereo partly drawn) [CP1] as the compound, how does the IC50 [1] read?
Its IC50 is 80 ± 10 pM.

What about the “Vmax” value ([2]; CP1 concentration 0.6 nM) of the same compound?
Its value is 56.2 ± 1.94 M/s.

And the “Vmax” value ([2]; CP1 concentration 1.5 nM)?
The value was 40.7 ± 2.42 M/s.

What about the “Vmax” value ([2]; CP1 concentration 3.8 nM) of the same compound?
Its value is 26.8 ± 1.07 M/s.

And the Kd [3]?
The Kd was 60 ± 1 pM.

What about the IC50 [4] of the same compound?
The IC50 was > 100 µM.

And the IC50 [5]?
Its IC50 is > 100 µM.

And the IC50 [6]?
The IC50 was > 100 µM.

And the IC50 [7]?
Its IC50 is > 100 µM.

And the IC50 [8]?
The IC50 was 0.27 ± 0.01 µM.

What about the IC50 [9] of the same compound?
Its IC50 is > 30 µM.

And the IC50 [10]?
The IC50 was > 30 µM.

And the IC50 [11]?
Its IC50 is > 30 µM.

And the IC50 [12]?
The IC50 was > 30 µM.

And the IC50 [13]?
The IC50 was > 30 µM.

And the IC50 [14]?
The IC50 was > 30 µM.

What about the IC50 [15] of the same compound?
The IC50 was > 30 µM.

And the IC50 [16]?
Its IC50 is > 30 µM.
